In PubChem BioAssay (NCI):
Where “and” joins values, the source holds several entries; their conditions need not be identical. Identical values can stand only once.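 Briefly, cells in 96-well plates were exposed to five compound concentrations for 48 h, and endpoints were estimated by linear interpolation. GI50: concentration for 50% inhibition of growth. TGI denotes the concentration required for complete inhibition of growth.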

What was measured:
Test in all cases: NCI tumour cell line growth inhibition, 48 h
ACHN renal = test system: ACHN renal
CAKI-1 renal = test system: CAKI-1 renal
HT29 colon = test system: HT29 colon
LOX IMVI melanoma = test system: LOX IMVI melanoma
M14 melanoma = test system: M14 melanoma
MCF7 breast = test system: MCF7 breast
MOLT-4 leukemia = test system: MOLT-4 leukemia
NCI-H226 lung = test system: NCI-H226 lung
OVCAR-4 ovarian = test system: OVCAR-4 ovarian
SK-MEL-5 melanoma = test system: SK-MEL-5 melanoma

| Compound | GI50 (ACHN renal) [µM] | TGI (ACHN renal) | GI50 (CAKI-1 renal) [µM] | TGI (CAKI-1 renal) | GI50 (HT29 colon) [µM] | TGI (HT29 colon) | GI50 (LOX IMVI melanoma) [µM] | TGI (LOX IMVI melanoma) | GI50 (M14 melanoma) [µM] | TGI (M14 melanoma) | GI50 (MCF7 breast) [µM] | TGI (MCF7 breast) | GI50 (MOLT-4 leukemia) [µM] | TGI (MOLT-4 leukemia) | GI50 (NCI-H226 lung) [µM] | TGI (NCI-H226 lung) | GI50 (OVCAR-4 ovarian) [µM] | TGI (OVCAR-4 ovarian) | GI50 (SK-MEL-5 melanoma) [µM] | TGI (SK-MEL-5 melanoma) |
| --- | --- | --- | --- | --- | --- | --- | --- | --- | --- | --- | --- | --- | --- | --- | --- | --- | --- | --- | --- | --- |
| O=C(/C=C/OC(=O)c1cccc(Cl)c1)c1ccc(Cl)cc1 | 52.3 | > 100 µM | > 51.5 | > 100 µM | 50 | > 100 µM | 36.5 | > 100 µM | 34.6 | > 100 µM | 48.7 | > 100 µM | 31.8 | > 78.6 µM | > 79 | > 100 µM | > 72.5 | > 100 µM | 55.2 | > 100 µM |
| C/C(=N/Nc1nc(C)cc(=O)[nH]1)C(=O)O | – | > 100 µM | – | > 100 µM | – | > 100 µM | – | > 100 µM | – | > 100 µM | – | > 100 µM | – | > 100 µM | – | > 100 µM | – | > 100 µM | – | > 100 µM |
| O=C1NC(c2cccc(OCc3ccccc3)c2)Nc2ccccc21 (stereo not drawn) | – | 28.7 µM | – | > 32.8 µM | – | 0.239 µM | – | 17.5 µM | – | 38.8 µM | – | 15.2 µM | – | 2.77 µM | – | 2.44 µM | – | > 100 µM | – | 1.87 µM |
| COC1=CC(=O)c2nc(Cl)ccc2C1=O | 1.67 | 3.04 µM | 1.91 | 3.74 µM | 2.21 | 4.74 µM | 1.38 | 2.8 µM | 1.92 | 3.52 µM | 1.91 | 4.19 µM | 0.807 | 7.77 µM | 7.61 | 21.5 µM | 1.5 | 2.83 µM | 1.66 | 3.02 µM |
| O=C1C2C3C=CC(C2C(=O)N1CN1CCSCC1)C1C2C(=O)N(CN4CCSCC4)C(=O)C2C31 (stereo not drawn) | – | > 100 µM | – | > 100 µM | – | > 100 µM | – | > 80.5 µM | – | > 100 µM | 69.1 | – | 54.2 | > 100 µM | – | > 100 µM | – | > 100 µM | – | > 100 µM |
| CN1CCN(Cc2ccc(NC(=O)c3cncc(C#Cc4cnc(N)c5cnccc45)c3)cc2C(F)(F)F)CC1 | 0.201 | 1.43 µM | 0.979 | 6.61 µM | 0.115 | 6.1 µM | 0.0745 | 0.26 µM | 0.0727 | 0.281 µM | 0.921 | 8.75 µM | 0.172 | 7.49 µM | 0.115 | 4.54 µM | 0.129 | 7.52 µM | 0.277 | 0.952 µM |
| FC(F)(F)c1cc(Nc2ccc3cc(OCCCN4CCOCC4)ccc3n2)ccc1Cl | 2.05 | 4.86 µM | 1.66 | 3.44 µM | 1.59 | 3.16 µM | 1.53 | 2.99 µM | 1.71 | 3.66 µM | 1.51 | 3.56 µM | 2.16 | 6.82 µM | 2.56 | 11.7 µM | 2.54 | 12.8 µM | 1.64 | 3.16 µM |
| Cn1c2ccccc2c2c(=O)n(CCCC(=O)OC(=NC3CCCCC3)NC3CCCCC3)c3c(-c4ccccc4)nnn3c21 | > 100 | > 100 µM | > 100 | > 100 µM | > 100 | > 100 µM | > 100 | > 100 µM | > 100 | > 100 µM | 64.1 | > 100 µM | > 100 | > 100 µM | > 100 | > 100 µM | 38 | > 100 µM | > 100 | > 100 µM |
| CC1(C)N=C(N)N=C(N)N1c1cccc(Br)c1 | 0.786 | > 100 µM | 41.9 | > 100 µM | 0.255 | > 100 µM | 0.146 | > 100 µM | 0.558 | > 100 µM | 0.665 | > 100 µM | 0.94 | > 100 µM | – | > 100 µM | 8.66 | > 100 µM | 1.03 | > 100 µM |
| CSc1ccc(C(=O)/C=C/c2ccccc2Cl)cc1 | 15 | 28.5 µM | 15.4 | 30.7 µM | 21.2 | > 100 µM | 6.08 | 19.2 µM | 16.6 | 36.1 µM | 32.2 | > 100 µM | 24 | > 100 µM | 15.8 | 37.6 µM | 25.7 | 66 µM | 16.7 | 31.6 µM |
| C/C(=N/N=C(N)N)c1ccc(NC(=O)Nc2ccc(/C(C)=N/N=C(N)N)cc2)cc1 | 20.7 | > 55.4 µM | 22.4 | > 100 µM | 27.3 | > 100 µM | 21.5 | > 70.1 µM | 35.7 | > 75.1 µM | 4.48 | 31.2 µM | 25.7 | > 100 µM | 25 | > 94.6 µM | 17.1 | 61.1 µM | 10.6 | 37.9 µM |
| O=C1C=CC2(C=C1)C[C@H](NC(=O)OCc1ccccc1)C(=O)O2 | – | 29.5 µM | – | 34.8 µM | – | 31.9 µM | – | 31.8 µM | – | 32.6 µM | – | 25.1 µM | – | 15.3 µM | – | > 86.7 µM | – | 39.6 µM | – | 47.9 µM |
| Nc1ncnc2c1ccn2[C@@H]1O[C@H]([C@H](O)c2ccc(Cl)c(F)c2)[C@@H](O)[C@H]1O | > 100 | > 100 µM | > 100 | > 100 µM | 36 | > 100 µM | > 100 | > 100 µM | > 100 | > 100 µM | 50.2 | > 100 µM | > 100 | > 100 µM | 34.5 | > 100 µM | > 100 | > 100 µM | 92.6 | > 100 µM |
| C[CH2][Sn]([CH2]C)([O]C(=O)c1ccc(OC)c(OC)c1OC)[O]C(=O)c1ccc(OC)c(OC)c1OC | 51.4 | > 78.9 µM | 14.7 | 30.6 µM | > 96 | > 100 µM | 27.2 | > 69.7 µM | 61.9 | > 100 µM | 24.7 | 49.2 µM | 34.1 | > 100 µM | 19.7 | 46 µM | > 82.6 | > 100 µM | 99.2 | > 100 µM |
| COCc1c(-c2ccc(NC(=O)Nc3cc(C(F)(F)F)ccc3F)c(F)c2)c2c(N)ncnn2c1CN1CCOCC1 | 1.48 | > 10 µM | 1.9 | > 10 µM | 1.62 | > 10 µM | 1.36 | 5.77 µM | 1.5 | > 10 µM | 2.2 | 8.23 µM | 2.07 | 9.8 µM | 0.0747 | 5.25 µM | 1.97 | > 10 µM | 2.49 | > 10 µM |
| N#CC1C(=O)NC(c2ccccc2[N+](=O)[O-])c2sc3c(F)cccc3c21 (stereo not drawn) | 15.7 | > 100 µM | 0.242 | 5.43 µM | 11.5 | > 93.9 µM | 15.9 | 37.8 µM | 16.3 | 47.5 µM | 0.216 | 37 µM | 15.4 | > 73 µM | 0.273 | 2.55 µM | 1.5 | 44.7 µM | 14.3 | 33.8 µM |
| CCN(Cc1ccc(F)cc1)c1ccc(CO)c(OC)c1 | 17.1 | 53.7 µM | 4.69 | 33.3 µM | 24 | > 67.5 µM | 27.8 | > 100 µM | 31.1 | > 100 µM | 25.3 | > 100 µM | 20.1 | 72.4 µM | 1.15 | 2.77 µM | 7.02 | 20.6 µM | 11.9 | 24.9 µM |
| Cc1ccc(OCC2OC(n3cnc4c(Br)nc(Br)nc43)CC2Oc2ccc(C)cc2)cc1 (stereo not drawn) | 5.29 | 14.8 µM and 4.93 µM | 1.2 | 2.26 µM and 4.03 µM | 2.32 | 8 µM and 7.2 µM | 1.42 | 2.47 µM and 3.67 µM | – | 10.6 µM and 7.47 µM | 2.52 | 8.4 µM and 30.3 µM | – | 4.34 µM and 5.42 µM | 1.63 | 33 µM and 3.77 µM | 1.56 | 4.84 µM and 7.55 µM | 13.4 | 23.8 µM and 23.7 µM |
